Read-outs that look alike come from different tables or passages of the source.
Experiments:
[1] = molecular target: CDK4/Cyclin D1 (Homo sapiens, UniProt P11802); assay: NanoBRET live-cell target engagement, NanoLuc-CDK4/Cyclin D1 in HEK-293; type: binding; details: 10µM, read-out: CDK4/D1 Inhibition at 10µM (%)
[2] = molecular target: CDK13/Cyclin K (Homo sapiens, UniProt Q14004); assay: NanoBRET live-cell target engagement, CDK13-NanoLuc/Cyclin K in HEK-293; type: binding; details: for inhibition at 10 µM: read-out: CDK13/K Inhibition at 10µM (%)
[3] = molecular target: CDK5/CDK5R1 (Homo sapiens, UniProt Q00535); assay: NanoBRET live-cell target engagement, CDK5-NanoLuc/CDK5R1 in HEK-293; type: binding; details: 10µM, read-out: CDK5/CDK5R1 Inhibition at 10µM (%)
[4] = molecular target: CDK14/Cyclin Y (Homo sapiens, UniProt O94921); assay: NanoBRET live-cell target engagement, CDK14-NanoLuc/Cyclin Y in HEK-293; type: binding; details: 10µM, read-out: CDK14/Y Inhibition at 10µM (%)
Chain of CDK14/Cyclin Y (O94921 whole entry): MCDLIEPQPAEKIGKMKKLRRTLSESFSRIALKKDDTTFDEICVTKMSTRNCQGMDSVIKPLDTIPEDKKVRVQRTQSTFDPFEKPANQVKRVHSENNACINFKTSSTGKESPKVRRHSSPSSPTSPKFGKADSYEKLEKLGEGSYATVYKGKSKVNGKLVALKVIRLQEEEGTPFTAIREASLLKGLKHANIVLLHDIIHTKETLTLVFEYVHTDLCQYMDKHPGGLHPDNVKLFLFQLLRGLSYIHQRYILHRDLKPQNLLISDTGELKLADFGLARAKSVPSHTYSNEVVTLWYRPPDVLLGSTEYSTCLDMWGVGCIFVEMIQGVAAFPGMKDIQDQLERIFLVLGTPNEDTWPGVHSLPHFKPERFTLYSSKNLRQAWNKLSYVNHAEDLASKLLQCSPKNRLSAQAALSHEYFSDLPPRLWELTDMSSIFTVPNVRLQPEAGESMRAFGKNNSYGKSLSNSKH
Chain of CDK14/Cyclin Y (Q8ND76 whole entry partner): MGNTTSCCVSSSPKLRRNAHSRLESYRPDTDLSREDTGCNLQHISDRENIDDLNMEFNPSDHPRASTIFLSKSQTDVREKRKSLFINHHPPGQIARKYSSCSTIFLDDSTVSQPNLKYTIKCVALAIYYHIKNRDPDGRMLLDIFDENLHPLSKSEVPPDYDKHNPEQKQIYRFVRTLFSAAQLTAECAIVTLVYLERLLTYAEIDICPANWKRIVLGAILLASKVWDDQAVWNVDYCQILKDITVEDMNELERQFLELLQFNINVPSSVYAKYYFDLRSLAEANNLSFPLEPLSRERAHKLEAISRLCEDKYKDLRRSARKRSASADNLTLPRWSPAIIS

[5] = molecular target: CDK7 (Homo sapiens, UniProt P50613); assay: NanoBRET live-cell target engagement, NanoLuc-CDK7 in HEK-293; type: binding; details: read-out: CDK7 Inhibition at 10µM (%), 10µM
Chain of CDK7 (P50613 whole entry): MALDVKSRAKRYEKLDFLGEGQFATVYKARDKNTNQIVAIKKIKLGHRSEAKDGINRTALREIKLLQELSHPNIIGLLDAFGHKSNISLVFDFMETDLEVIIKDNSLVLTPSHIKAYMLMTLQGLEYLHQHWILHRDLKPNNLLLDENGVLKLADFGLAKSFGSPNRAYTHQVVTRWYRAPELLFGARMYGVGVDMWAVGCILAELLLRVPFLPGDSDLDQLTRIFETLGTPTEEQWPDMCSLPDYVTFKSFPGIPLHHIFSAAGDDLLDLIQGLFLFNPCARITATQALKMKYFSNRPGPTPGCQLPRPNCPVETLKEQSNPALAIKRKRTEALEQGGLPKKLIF

[6] = molecular target: CDK1/Cyclin E1 (Homo sapiens, UniProt P06493); assay: NanoBRET live-cell target engagement, CDK1-NanoLuc/Cyclin E1 in HEK-293; type: binding; details: 10µM, read-out: CDK1/E1 Inhibition at 10µM (%)
Chain of CDK1/Cyclin E1 (P06493 whole entry): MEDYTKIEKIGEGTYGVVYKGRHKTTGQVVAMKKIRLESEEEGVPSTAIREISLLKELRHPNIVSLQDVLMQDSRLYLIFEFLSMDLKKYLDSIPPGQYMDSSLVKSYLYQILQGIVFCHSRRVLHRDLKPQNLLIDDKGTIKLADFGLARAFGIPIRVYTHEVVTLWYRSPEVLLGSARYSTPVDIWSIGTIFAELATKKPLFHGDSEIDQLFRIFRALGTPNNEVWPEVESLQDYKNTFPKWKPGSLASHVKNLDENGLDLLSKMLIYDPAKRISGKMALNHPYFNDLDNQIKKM
Chain of CDK1/Cyclin E1 (P24864 whole entry partner): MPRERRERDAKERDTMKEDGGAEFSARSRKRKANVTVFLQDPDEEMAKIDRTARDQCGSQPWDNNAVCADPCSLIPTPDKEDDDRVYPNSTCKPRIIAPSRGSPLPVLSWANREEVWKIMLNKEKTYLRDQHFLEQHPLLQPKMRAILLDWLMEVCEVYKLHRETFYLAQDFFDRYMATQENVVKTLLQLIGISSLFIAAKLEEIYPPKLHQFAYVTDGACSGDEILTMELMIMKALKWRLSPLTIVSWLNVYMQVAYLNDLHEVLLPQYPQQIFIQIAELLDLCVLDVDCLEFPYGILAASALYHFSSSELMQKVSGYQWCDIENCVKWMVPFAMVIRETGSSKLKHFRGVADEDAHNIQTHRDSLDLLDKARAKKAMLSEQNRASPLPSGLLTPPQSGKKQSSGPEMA

[7] = molecular target: CDK2/Cyclin E1 (Homo sapiens, UniProt P24941); assay: NanoBRET live-cell target engagement, CDK2-NanoLuc/Cyclin E1 in HEK-293; type: binding; details: 10µM, read-out: CDK2/E1 Inhibition at 10µM (%)
[8] = molecular target: CDK16/Cyclin Y (Homo sapiens, UniProt Q00536); assay: NanoBRET live-cell target engagement, CDK16-NanoLuc/Cyclin Y in HEK-293; type: binding; details: 10µM, read-out: CDK16/Y Inhibition at 10µM (%)
[9] = molecular target: CDK11B/Cyclin L2 (Homo sapiens, UniProt P21127); assay: NanoBRET live-cell target engagement, CDK11B-NanoLuc/Cyclin L2 in HEK-293; type: binding; details: 10µM, read-out: CDK11b/L2 Inhibition at 10µM (%)
[10] = molecular target: CDK6/Cyclin D1 (Homo sapiens, UniProt Q00534); assay: NanoBRET live-cell target engagement, NanoLuc-CDK6/Cyclin D1 in HEK-293; type: binding; details: 10µM, read-out: CDK6/D1 Inhibition at 10µM (%)
Chain of CDK6/Cyclin D1 (Q00534 whole entry): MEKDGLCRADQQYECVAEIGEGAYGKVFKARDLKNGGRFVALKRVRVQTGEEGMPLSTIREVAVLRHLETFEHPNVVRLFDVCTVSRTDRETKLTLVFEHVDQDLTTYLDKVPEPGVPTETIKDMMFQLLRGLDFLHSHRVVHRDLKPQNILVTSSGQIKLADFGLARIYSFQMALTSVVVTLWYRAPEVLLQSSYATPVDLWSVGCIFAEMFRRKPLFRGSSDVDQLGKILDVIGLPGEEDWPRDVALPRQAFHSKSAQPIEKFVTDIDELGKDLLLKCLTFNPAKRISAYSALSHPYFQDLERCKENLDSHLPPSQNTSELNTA
Chain of CDK6/Cyclin D1 (P24385 whole entry partner): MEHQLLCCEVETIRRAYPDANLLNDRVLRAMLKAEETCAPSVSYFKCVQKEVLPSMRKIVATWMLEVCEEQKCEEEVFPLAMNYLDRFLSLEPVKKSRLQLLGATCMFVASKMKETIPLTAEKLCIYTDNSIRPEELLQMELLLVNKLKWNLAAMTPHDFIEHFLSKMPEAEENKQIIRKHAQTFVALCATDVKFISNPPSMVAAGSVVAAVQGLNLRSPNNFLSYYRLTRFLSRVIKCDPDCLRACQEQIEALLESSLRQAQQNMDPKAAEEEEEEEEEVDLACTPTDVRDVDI

[11] = molecular target: CDK9/Cyclin K (Homo sapiens, UniProt P50750); assay: NanoBRET live-cell target engagement, NanoLuc-CDK9/Cyclin K in HEK-293; type: binding; details: 10µM, read-out: CDK9/K Inhibition at 10µM (%)
[12] = molecular target: CDK20/Cyclin H (Homo sapiens, UniProt Q8IZL9); assay: NanoBRET live-cell target engagement, NanoLuc-CDK20/Cyclin H in HEK-293; type: binding; details: 10µM, read-out: CDK20/H Inhibition at 10µM (%)
[13] = molecular target: CDK17/Cyclin Y (Homo sapiens, UniProt Q00537); assay: NanoBRET live-cell target engagement, CDK17-NanoLuc/Cyclin Y in HEK-293; type: binding; details: 10µM, read-out: CDK17/Y Inhibition at 10µM (%)
[14] = molecular target: CDK8/Cyclin C (Homo sapiens, UniProt P49336); assay: NanoBRET live-cell target engagement, NanoLuc-CDK8/Cyclin C in HEK-293; type: binding; details: 10µM, read-out: CDK8/C Inhibition at 10µM (%)
Chain of CDK8/Cyclin C (P49336 whole entry): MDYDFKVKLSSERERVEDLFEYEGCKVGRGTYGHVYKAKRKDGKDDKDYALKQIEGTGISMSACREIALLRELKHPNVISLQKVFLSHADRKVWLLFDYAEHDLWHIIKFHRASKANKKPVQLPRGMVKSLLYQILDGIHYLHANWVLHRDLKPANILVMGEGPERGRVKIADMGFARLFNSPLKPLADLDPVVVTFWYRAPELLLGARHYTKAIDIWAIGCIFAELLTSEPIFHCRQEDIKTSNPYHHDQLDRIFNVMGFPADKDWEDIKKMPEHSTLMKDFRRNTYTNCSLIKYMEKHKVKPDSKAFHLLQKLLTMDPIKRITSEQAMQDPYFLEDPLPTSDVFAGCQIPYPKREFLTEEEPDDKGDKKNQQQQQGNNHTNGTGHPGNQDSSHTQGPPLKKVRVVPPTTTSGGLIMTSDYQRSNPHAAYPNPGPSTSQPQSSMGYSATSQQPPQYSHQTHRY
Chain of CDK8/Cyclin C (P24863 whole entry partner): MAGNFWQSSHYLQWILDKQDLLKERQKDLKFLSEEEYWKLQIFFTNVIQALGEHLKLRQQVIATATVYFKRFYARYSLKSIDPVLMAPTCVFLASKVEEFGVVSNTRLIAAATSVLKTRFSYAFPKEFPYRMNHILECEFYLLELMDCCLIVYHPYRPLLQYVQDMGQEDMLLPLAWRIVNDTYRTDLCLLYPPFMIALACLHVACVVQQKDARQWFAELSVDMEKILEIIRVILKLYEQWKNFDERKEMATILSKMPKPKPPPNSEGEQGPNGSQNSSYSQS

[15] = molecular target: CDK18/Cyclin Y (Homo sapiens, UniProt Q07002); assay: NanoBRET live-cell target engagement, CDK18-NanoLuc/Cyclin Y in HEK-293; type: binding; details: 10µM, read-out: CDK18/Y Inhibition at 10µM (%)
Chain of CDK18/Cyclin Y (Q07002 whole entry): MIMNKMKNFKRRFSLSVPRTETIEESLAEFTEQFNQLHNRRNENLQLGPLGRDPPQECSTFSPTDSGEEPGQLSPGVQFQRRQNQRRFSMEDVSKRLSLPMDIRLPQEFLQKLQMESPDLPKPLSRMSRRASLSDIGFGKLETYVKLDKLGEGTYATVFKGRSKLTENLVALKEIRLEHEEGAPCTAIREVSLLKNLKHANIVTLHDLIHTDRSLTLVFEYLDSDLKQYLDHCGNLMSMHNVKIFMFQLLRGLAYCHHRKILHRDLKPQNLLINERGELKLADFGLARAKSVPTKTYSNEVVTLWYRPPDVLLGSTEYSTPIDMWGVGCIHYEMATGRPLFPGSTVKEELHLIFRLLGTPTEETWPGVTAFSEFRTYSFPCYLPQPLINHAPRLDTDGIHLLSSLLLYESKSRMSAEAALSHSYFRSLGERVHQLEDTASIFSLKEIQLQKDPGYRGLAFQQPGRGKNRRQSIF
Chain of CDK18/Cyclin Y (Q8ND76 whole entry partner): as the sequence (Q8ND76 whole entry partner) above

[16] = molecular target: CDK10/Cyclin L2 (Homo sapiens, UniProt Q15131); assay: NanoBRET live-cell target engagement, CDK10-NanoLuc/Cyclin L2 in HEK-293; details: read-out: CDK10/L2 Inhibition at 10µM (%), 10µM
Chain of CDK10/Cyclin L2 (Q15131 whole entry): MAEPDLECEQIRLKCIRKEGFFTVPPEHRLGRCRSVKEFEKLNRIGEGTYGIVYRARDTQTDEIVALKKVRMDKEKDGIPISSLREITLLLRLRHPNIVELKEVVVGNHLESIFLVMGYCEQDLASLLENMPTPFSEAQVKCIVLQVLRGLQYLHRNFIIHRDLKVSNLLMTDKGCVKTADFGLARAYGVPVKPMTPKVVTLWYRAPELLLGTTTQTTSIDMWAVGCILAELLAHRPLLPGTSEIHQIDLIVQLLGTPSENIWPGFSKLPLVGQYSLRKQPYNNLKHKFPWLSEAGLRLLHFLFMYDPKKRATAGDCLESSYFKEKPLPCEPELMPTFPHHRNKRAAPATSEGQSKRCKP

[17] = molecular target: CDK15/Cyclin Y (Homo sapiens, UniProt Q96Q40); assay: NanoBRET live-cell target engagement, NanoLuc-CDK15/Cyclin Y in HEK-293; type: binding; details: 10µM, read-out: CDK15/Y Inhibition at 10µM (%)
[18] = molecular target: CDK19/Cyclin C (Homo sapiens, UniProt Q9BWU1); assay: NanoBRET live-cell target engagement, NanoLuc-CDK19/Cyclin C in HEK-293; details: read-out: CDK19/C Inhibition at 10µM (%), 10µM
[19] = molecular target: T1, CDK11A/Cyclin L2 (Homo sapiens, UniProt Q9UQ88); assay: NanoBRET live-cell target engagement, CDK11A-NanoLuc/Cyclin L2 in HEK-293; type: binding; details: 10µM, read-out: CDK11a/L2 Inhibition at 10µM (%)
T1 sequence (Q9UQ88 1-783): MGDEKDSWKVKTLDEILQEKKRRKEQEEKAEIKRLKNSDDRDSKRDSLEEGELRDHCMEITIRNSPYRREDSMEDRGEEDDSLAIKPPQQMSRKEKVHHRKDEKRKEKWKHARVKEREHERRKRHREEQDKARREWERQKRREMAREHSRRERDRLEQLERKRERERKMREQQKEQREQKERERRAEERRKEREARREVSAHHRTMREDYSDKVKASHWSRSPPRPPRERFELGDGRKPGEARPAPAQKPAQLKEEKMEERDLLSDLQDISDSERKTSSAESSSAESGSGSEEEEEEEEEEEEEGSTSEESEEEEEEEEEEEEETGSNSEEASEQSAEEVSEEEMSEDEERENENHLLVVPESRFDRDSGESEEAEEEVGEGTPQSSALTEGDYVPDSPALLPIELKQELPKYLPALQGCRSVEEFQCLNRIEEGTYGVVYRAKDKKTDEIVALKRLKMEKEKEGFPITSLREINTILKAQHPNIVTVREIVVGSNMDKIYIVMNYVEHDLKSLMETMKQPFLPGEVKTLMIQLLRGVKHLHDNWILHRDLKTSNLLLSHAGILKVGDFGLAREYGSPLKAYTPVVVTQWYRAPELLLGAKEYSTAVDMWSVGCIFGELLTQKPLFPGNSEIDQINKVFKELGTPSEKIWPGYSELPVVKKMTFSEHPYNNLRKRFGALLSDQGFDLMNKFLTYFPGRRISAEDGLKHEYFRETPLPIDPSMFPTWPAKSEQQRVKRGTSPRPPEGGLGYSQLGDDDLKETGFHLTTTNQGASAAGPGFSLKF

Chain of CDK4/Cyclin D1 (P11802 whole entry): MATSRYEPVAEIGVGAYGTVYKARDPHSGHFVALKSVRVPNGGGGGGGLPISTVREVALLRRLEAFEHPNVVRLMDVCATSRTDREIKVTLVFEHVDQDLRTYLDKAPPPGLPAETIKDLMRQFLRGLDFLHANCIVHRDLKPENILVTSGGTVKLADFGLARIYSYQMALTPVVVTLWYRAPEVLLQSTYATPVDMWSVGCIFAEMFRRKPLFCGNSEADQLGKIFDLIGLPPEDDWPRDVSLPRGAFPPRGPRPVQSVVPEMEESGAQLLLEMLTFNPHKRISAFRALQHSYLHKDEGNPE
Chain of CDK4/Cyclin D1 (P24385 whole entry partner): as the sequence (P24385 whole entry partner) above

Structure (SMILES): CN(C)C/C=C/C(=O)Nc1ccc(C(=O)N2CCC[C@@H](Nc3ncc(Cl)c(-c4c[nH]c5ccccc45)n3)C2)cc1 [THZ531]
- inhibition at 10 µM ([1]; average of experiments): 54.6%
- inhibition at 10 µM ([1]; independent experiment 1): 47.7%
- inhibition at 10 µM ([1]; independent experiment 2): 61.5%
- inhibition at 10 µM ([2]; average of experiments): 53.1%
- inhibition at 10 µM ([2]; independent experiment 1): 48.6%
- inhibition at 10 µM ([2]; independent experiment 2): 57.6%
- IC50 ([2]; live HEK-293, response to reviewers, read-out: CDK13 IC50 (follow up)): ~2000 nM
- CDK13 occupancy at 10 µM ([2]; primary screen, live HEK-293): occupied
- receptor occupancy at 10 µM ([2]; primary screen, live HEK-293): ~50%
- inhibition at 10 µM ([3]; average of experiments): 45.3%
- inhibition at 10 µM ([3]; independent experiment 1): 30.8%
- inhibition at 10 µM ([3]; independent experiment 2): 59.9%
- inhibition at 10 µM ([4]; average of experiments): 41.8%
- inhibition at 10 µM ([4]; independent experiment 1): 22.4%
- inhibition at 10 µM ([4]; independent experiment 2): 61.2%
- inhibition at 10 µM ([5]; average of experiments): 78.1%
- inhibition at 10 µM ([5]; independent experiment 1): 74.8%
- inhibition at 10 µM ([5]; independent experiment 2): 81.5%
- inhibition at 10 µM ([6]; average of experiments): 61.4%
- inhibition at 10 µM ([6]; independent experiment 1): 48.6%
- inhibition at 10 µM ([6]; independent experiment 2): 74.1%
- inhibition at 10 µM ([7]; average of experiments): 52.7%
- inhibition at 10 µM ([7]; independent experiment 1): 46.1%
- inhibition at 10 µM ([7]; independent experiment 2): 59.3%
- inhibition at 10 µM ([8]; independent experiment 1): 75.1%
- inhibition at 10 µM ([8]; independent experiment 2): 49.9%
- inhibition at 10 µM ([9]; average of experiments): 32.4%
- inhibition at 10 µM ([9]; independent experiment 1): 30%
- inhibition at 10 µM ([9]; independent experiment 2): 34.7%
- inhibition at 10 µM ([10]; average of experiments): 36.6%
- inhibition at 10 µM ([10]; independent experiment 1): 32%
- inhibition at 10 µM ([10]; independent experiment 2): 41.3%
- inhibition at 10 µM ([11]; average of experiments): 81.1%
- inhibition at 10 µM ([11]; independent experiment 1): 78.5%
- inhibition at 10 µM ([11]; independent experiment 2): 83.8%
- inhibition at 10 µM ([12]; independent experiment 1): 30.9%
- inhibition at 10 µM ([12]; independent experiment 2): 52.4%
- inhibition at 10 µM ([13]; average of experiments): 63%
- inhibition at 10 µM ([13]; independent experiment 1): 73.4%
- inhibition at 10 µM ([13]; independent experiment 2): 52.6%
- inhibition at 10 µM ([14]; average of experiments): 41%
- inhibition at 10 µM ([14]; independent experiment 1): 30.9%
- inhibition at 10 µM ([14]; independent experiment 2): 51.2%
- inhibition at 10 µM ([15]; average of experiments): 64.6%
- inhibition at 10 µM ([15]; independent experiment 1): 71.7%
- inhibition at 10 µM ([15]; independent experiment 2): 57.6%
- inhibition at 10 µM ([16]; average of experiments): 51%
- inhibition at 10 µM ([16]; independent experiment 1): 41.2%
- inhibition at 10 µM ([16]; independent experiment 2): 60.7%
- inhibition at 10 µM ([17]; average of experiments): 80.5%
- inhibition at 10 µM ([17]; independent experiment 1): 75.6%
- inhibition at 10 µM ([17]; independent experiment 2): 85.5%
- inhibition at 10 µM ([18]; average of experiments): 55.3%
- inhibition at 10 µM ([18]; independent experiment 1): 58.1%
- inhibition at 10 µM ([18]; independent experiment 2): 52.6%
- inhibition at 10 µM ([19]; average of experiments): 46.9%
- inhibition at 10 µM ([19]; independent experiment 1): 27.8%
- inhibition at 10 µM ([19]; independent experiment 2): 65.9%
